The text below walks through data of patent publication US11034666B2, “Anti-inflammatory and antitumor 2-oxothiazoles and 2-oxothiophenes compounds” (Avexxin AS, priority 2013, dated 2021).

The term IC50 denotes the concentration that gives 50% inhibition.

SMILES strings stand for the structures.

The first assay relates to AA release in SW982 cells. Briefly: Ex vivo cellular arachidonic acid (AA) release assay, IL-1β stimulated. The format is cell-based, human. To be noted: Homo sapiens; SW982 cells; tested 0-20 μM; Tables 2 and 4; read-out: AA release SW982 cells (0-20 μM) IC50. Here is the method:
The effect of the oxothiazoles synthesized on the release of AA and OA in synoviocytes was evaluated as previously described.^54 The percent inhibition of AA and OA was determined at a 10 μM inhibitor concentration, while for the determination of the IC50 value the inhibitors were tested in a 0-20 μM range after IL-1β stimulation for 4 h.
The human synovial sarcoma cell line SW982 was from ATCC (UK) and was used as a model system to monitor AA/OA release and activation of GIVA cPLA2. SW982 cells were passaged bi-weekly by routine trypsin detachment and kept in a sub-confluent state. The cells were maintained in Dulbecco's Modified Eagle Medium (DMEM) supplemented with 10% FBS, 0.1 mg/mL gentamicin and 0.3 mg/mL L-glutamine at 37° C. with 10% CO2. For AA release, 5*10^5 cells were seeded pr well in a 48-well per plate format. Experiments were performed at 3 days post-confluency following overnight serum deprivation in serum-free DMEM to ensure differentiation and synchronization of the cells.
AA and OA release was analyzed as previously described.^54 At 2 days post-confluency, SW982 cells were serum-starved and labelled overnight with ^3H-AA (0.4 μCi/ml) and ^14C-OA (0.067 μCi/ml) in serum-free DMEM. Prior to the addition of oxothiazoles, the cells were washed twice with PBS containing fBSA (2 mg/ml) and PBS in order to remove unincorporated radioactivity. Cells were pretreated (1 h) with oxothiazoles prior to IL-1β stimulation (10 ng/mL, 4 h). Following IL-1β stimulation, the supernatants were cleared of detached cells by centrifugation (13000 rpm, 5 min). The release of ^3H-AA and ^14C-OA from the cells was assessed by liquid scintillation counting (LS 6500 Multi-Purpose Scintillation Counter, Beckman Coulter, Inc (USA). Adherent cells were dissolved in 1N NaOH in order to determine incorporated ^3H-AA and ^14C-OA in the cells by liquid scintillation counting. In all experiments, DMSO was included for vehicle control ([…]0.05%).
Following treatments, cells were routinely observed by microscopy to ensure unaltered cell morphology, integrity and viability. The results are given as inhibition of released ^3H-AA and ^14C-OA in the supernatants relative to total ^3H-AA and ^14C-OA incorporated into the cells, from at least three independent experiments performed in triplicates.
Consider `O=C(COc1ccccc1)c1nccs1` [Compound D, 2-Phenoxy-1-(thiazol-2-yl)ethanone], for which the IC50 is above 20 µM.

In the case of `CCCCCCCCc1ccc(OCC(=O)c2nc(C(=O)OC)cs2)cc1` [Compound A, Methyl 2-(2-(4-octylphenoxy)acetyl)thiazole-4-carboxylate], the half-maximal inhibitory concentration (IC50) was around 0.6 µM.

Regarding `O=C(COc1ccc(F)cc1)c1nccs1` [Compound C, 2-(4-Fluorophenoxy)-1-(thiazol-2-yl)ethanone], the IC50 was above 20 µM.

As to `O=C(COc1ccc(-c2ccccc2)cc1)c1nccs1` [Compound B, 2-(Biphenyl-4-yloxy)-1-(thiazol-2-yl)ethanone], the 50% inhibitory concentration (IC50) is around 2.5 µM.

The assay is the same for the next values; noted with them: Homo sapiens; SW982 synoviocytes; 4 h IL-1β stimulation; % inhibition at 10 pM oxothiazole (so in the source); read-out: AA release % Inhib.
Turning to `CCCCCCCCCCCCOCC(=O)c1nc(CC(=O)OCC)cs1` [Compound X, Ethyl 2-(2-(2-(dodecyloxy)acetyl)thiazol-4-yl)acetate], the inhibition worked out at 0%.

On to `O=C(COc1ccccc1)c1nccs1` [Compound D, 2-Phenoxy-1-(thiazol-2-yl)ethanone], for which the inhibition came out at 12%.

With `CCCCCCCCCCCCOCC(=O)c1nc(C(=O)OCC)cs1` [Compound W, Ethyl 2-(2-(dodecyloxy)acetyl)thiazole-4-carboxylate], the inhibition is 9%.

In the case of `CCCCCCCCc1ccc(OCC(=O)c2nc(C(=O)OC)cs2)cc1` [Compound A, Methyl 2-(2-(4-octylphenoxy)acetyl)thiazole-4-carboxylate], the inhibition was above 90%.

Take `CCCCCCCCc1ccc(OCC(=O)c2nc(CC(=O)OCC)cs2)cc1` [Compound Y, Ethyl 2-(2-(2-(4-octylphenoxy)acetyl)thiazol-4-yl)acetate]: the inhibition was determined as 71%.

As for `O=C(COc1ccc(F)cc1)c1nccs1` [Compound C, 2-(4-Fluorophenoxy)-1-(thiazol-2-yl)ethanone], the inhibition was found to be 0%.

Consider `O=C(COc1ccc(-c2ccccc2)cc1)c1nccs1` [Compound B, 2-(Biphenyl-4-yloxy)-1-(thiazol-2-yl)ethanone], for which the inhibition is 73%.

For `CCCCCCCCc1ccc(OCC(=O)c2nccs2)cc1` [Compound T, 2-(4-Octylphenoxy)-1-(thiazol-2-yl)ethanone], the inhibition is above 90%.

The same assay, now with this note: Homo sapiens; SW982 synoviocytes; tested in 0-20 μM range; 4 h IL-1β stimulation; read-out: AA release IC50.
In the case of `O=C(COc1ccccc1)c1nccs1` [Compound D, 2-Phenoxy-1-(thiazol-2-yl)ethanone], the IC50 is above 20 µM.

For `CCCCCCCCCCCCOCC(=O)c1nc(C(=O)OCC)cs1` [Compound W, Ethyl 2-(2-(dodecyloxy)acetyl)thiazole-4-carboxylate], the IC50 was above 20 µM.

As to `CCCCCCCCc1ccc(OCC(=O)c2nc(C(=O)OC)cs2)cc1` [Compound A, Methyl 2-(2-(4-octylphenoxy)acetyl)thiazole-4-carboxylate], the IC50 is 0.6 µM.

Regarding `CCCCCCCCc1ccc(OCC(=O)c2nc(CC(=O)OCC)cs2)cc1` [Compound Y, Ethyl 2-(2-(2-(4-octylphenoxy)acetyl)thiazol-4-yl)acetate], the IC50 turned out to be 5 µM.

As for `O=C(COc1ccc(-c2ccccc2)cc1)c1nccs1` [Compound B, 2-(Biphenyl-4-yloxy)-1-(thiazol-2-yl)ethanone], the IC50 came to 2.8 µM.

For `CCCCCCCCc1ccc(OCC(=O)c2nccs2)cc1` [Compound T, 2-(4-Octylphenoxy)-1-(thiazol-2-yl)ethanone], the 50% inhibitory concentration (IC50) worked out at 3.6 µM.

Still in this assay, the particulars now being: SW982 synoviocytes.
In the case of `CCCCCCCCCCCCOCC(=O)c1nc(CC(=O)OCC)cs1` [Compound X, Ethyl 2-(2-(2-(dodecyloxy)acetyl)thiazol-4-yl)acetate], the “inhibition of the AA release (in words)” value is given as “interesting inhibition”.

As for `CCCCCCCCCCCCOCC(=O)c1nc(C(=O)OCC)cs1` [Compound W, Ethyl 2-(2-(dodecyloxy)acetyl)thiazole-4-carboxylate], the “inhibition of the AA release (in words)” value was “interesting inhibition”.

As for `O=C(COc1ccc(-c2ccccc2)cc1)c1nccs1` [Compound B, 2-(Biphenyl-4-yloxy)-1-(thiazol-2-yl)ethanone], the “inhibition of the AA release (in words)” value is given as “interesting inhibition”.

As to `CCCCCCCCc1ccc(OCC(=O)c2nccs2)cc1` [Compound T, 2-(4-Octylphenoxy)-1-(thiazol-2-yl)ethanone], the “inhibition of the AA release (in words)” value is reported as “interesting inhibition”.

For another assay, the target named is T1, human GIVA cPLA2 (Homo sapiens, UniProt P47712).
T1 sequence (P47712 1-749): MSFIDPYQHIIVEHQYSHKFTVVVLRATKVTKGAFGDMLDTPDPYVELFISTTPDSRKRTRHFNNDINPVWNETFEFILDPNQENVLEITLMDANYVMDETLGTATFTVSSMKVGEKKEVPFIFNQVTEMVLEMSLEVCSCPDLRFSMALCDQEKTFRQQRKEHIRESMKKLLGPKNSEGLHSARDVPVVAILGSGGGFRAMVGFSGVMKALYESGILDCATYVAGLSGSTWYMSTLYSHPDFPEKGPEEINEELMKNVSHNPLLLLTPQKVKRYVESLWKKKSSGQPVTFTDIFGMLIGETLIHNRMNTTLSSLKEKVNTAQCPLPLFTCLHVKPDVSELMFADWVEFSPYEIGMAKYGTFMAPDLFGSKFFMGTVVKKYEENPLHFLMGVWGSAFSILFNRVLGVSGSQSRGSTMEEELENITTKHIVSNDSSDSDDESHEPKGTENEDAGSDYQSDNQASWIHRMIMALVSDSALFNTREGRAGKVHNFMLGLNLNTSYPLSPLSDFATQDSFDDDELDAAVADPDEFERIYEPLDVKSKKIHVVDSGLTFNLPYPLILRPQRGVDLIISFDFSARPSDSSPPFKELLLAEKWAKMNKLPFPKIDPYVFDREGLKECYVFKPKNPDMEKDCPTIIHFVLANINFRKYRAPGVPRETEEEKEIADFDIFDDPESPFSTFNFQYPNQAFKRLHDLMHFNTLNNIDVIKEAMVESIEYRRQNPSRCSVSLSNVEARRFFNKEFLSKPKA
Briefly: In vitro vesicle assay, cPLA2. The format is biochemical. To be noted: % inhibition at 1 μM oxothiazole; read-out: cPLA2 vesicle assay % Inhib. Here is the method: The effect of the oxothiazoles synthesized on GIVA cPLA2 was measured in vesicles as previously described^51,52 with modifications.^53 The results are presented in Table 6 and are in full agreement with those using the micellar assay. […] From both assays, it is clear that the introduction of the ethyl ester group directly on the heterocyclic ring substantially increases the potency of inhibition. This group presumably develops additional interactions within the enzyme's active site. Comparing the results obtained in mixed micelles and in vesicles is obvious that Compound A stands out in this series of oxothiazoles
GIVA cPLA2 was measured as described^51,52 with modifications.^53 In short, recombinant human GIVA cPLA2 enzyme was pre-incubated with DMSO (1%) with or without inhibitor in assay buffer (80 sec at 37° C., 10 min at 25° C.). Lipid vesicles of L-α-1-palmitoyl-2-arachidonyl-[arachidonyl-1-^14C]-phosphatidylcholine (4.3 nmol) were dried under a steam of N2 (g). The dried lipid was re-suspended in 2 ml assay buffer and sonicated twice (7 min, output 3.5 and 50% duty cycles, on ice) in a Branson Sonifier 250 (Branson Ultrasonic Corporation, Danbury, Conn.). Sonicated lipid (0.2 μM) was added to the reaction and incubated for 1 h at 37° C. followed by addition of a chloroform/methanol stop buffer to terminate the enzymatic reaction. The reaction mixture was separated by centrifugation (5 min, 1640×g). The lower phase was transferred to a glass tube and dried under a steam of N2 (g), re-suspended in chloroform/methanol (9:1, by volume) and applied to a silica gel. Free [1-^14C]arachidonic acid and, L-α-1-palmitoyl-2-arachidonyl-[arachidonyl-1-^14C]-phosphatidylcholine were separated by thin layer chromatography and analyzed as previously described.^54
As to `CCCCCCCCCCCCOCC(=O)c1nc(CC(=O)OCC)cs1` [Compound X, Ethyl 2-(2-(2-(dodecyloxy)acetyl)thiazol-4-yl)acetate], the inhibition at 1 µM is 0%.

Consider `O=C(COc1ccccc1)c1nccs1` [Compound D, 2-Phenoxy-1-(thiazol-2-yl)ethanone], for which the inhibition at 1 µM was determined as 26%.

As for `CCCCCCCCCCCCOCC(=O)c1nc(C(=O)OCC)cs1` [Compound W, Ethyl 2-(2-(dodecyloxy)acetyl)thiazole-4-carboxylate], the inhibition at 1 µM stood at 21%.

As to `CCCCCCCCc1ccc(OCC(=O)c2nc(C(=O)OC)cs2)cc1` [Compound A, Methyl 2-(2-(4-octylphenoxy)acetyl)thiazole-4-carboxylate], the inhibition at 1 µM was determined as 74%.

Regarding `CCCCCCCCc1ccc(OCC(=O)c2nc(CC(=O)OCC)cs2)cc1` [Compound Y, Ethyl 2-(2-(2-(4-octylphenoxy)acetyl)thiazol-4-yl)acetate], the inhibition at 1 µM came to 25%.

Regarding `O=C(COc1ccc(F)cc1)c1nccs1` [Compound C, 2-(4-Fluorophenoxy)-1-(thiazol-2-yl)ethanone], the inhibition at 1 µM came to 7%.

Turning to `O=C(COc1ccc(-c2ccccc2)cc1)c1nccs1` [Compound B, 2-(Biphenyl-4-yloxy)-1-(thiazol-2-yl)ethanone], the inhibition at 1 µM amounted to 26%.

As for `CCCCCCCCc1ccc(OCC(=O)c2nccs2)cc1` [Compound T, 2-(4-Octylphenoxy)-1-(thiazol-2-yl)ethanone], the inhibition at 1 µM was 43%.

Still in this assay, the particulars now being: at 1 μM; printed in the IC50 column of Table 2; read-out: cPLA2 in vitro assay, % inh at 1 μM.
As for `O=C(COc1ccc(-c2ccccc2)cc1)c1nccs1` [Compound B, 2-(Biphenyl-4-yloxy)-1-(thiazol-2-yl)ethanone], the inhibition at 1 µM was 35%.

Still in this assay, the particulars now being: inhibitors tested in 0-3 μM range; read-out: cPLA2 vesicle assay IC50 (μm).
As to `O=C(COc1ccccc1)c1nccs1` [Compound D, 2-Phenoxy-1-(thiazol-2-yl)ethanone], the half-inhibitory concentration (IC50) is above 3 µM.

For `CCCCCCCCCCCCOCC(=O)c1nc(C(=O)OCC)cs1` [Compound W, Ethyl 2-(2-(dodecyloxy)acetyl)thiazole-4-carboxylate], the IC50 is above 3 µM.

In the case of `CCCCCCCCc1ccc(OCC(=O)c2nc(CC(=O)OCC)cs2)cc1` [Compound Y, Ethyl 2-(2-(2-(4-octylphenoxy)acetyl)thiazol-4-yl)acetate], the IC50 was above 3 µM.

Regarding `O=C(COc1ccc(F)cc1)c1nccs1` [Compound C, 2-(4-Fluorophenoxy)-1-(thiazol-2-yl)ethanone], the IC50 was above 3 µM.

In the case of `O=C(COc1ccc(-c2ccccc2)cc1)c1nccs1` [Compound B, 2-(Biphenyl-4-yloxy)-1-(thiazol-2-yl)ethanone], the IC50 is above 3 µM.

The assay is the same for the next values; noted with them: tested 0-5 μM; Tables 2 and 4; read-out: cPLA2 in vitro assay (0-5 μM) IC50.
As to `O=C(COc1ccccc1)c1nccs1` [Compound D, 2-Phenoxy-1-(thiazol-2-yl)ethanone], the IC50 is above 5 µM.

Consider `CCCCCCCCc1ccc(OCC(=O)c2nc(C(=O)OC)cs2)cc1` [Compound A, Methyl 2-(2-(4-octylphenoxy)acetyl)thiazole-4-carboxylate], for which the IC50 was around 0.3 µM.

`O=C(COc1ccc(F)cc1)c1nccs1` [Compound C, 2-(4-Fluorophenoxy)-1-(thiazol-2-yl)ethanone]: the IC50 is above 5 µM.

Staying with this assay, now noted: vesicles assay; read-out: IC50 on GIVA cPLA2 in vesicles assay.
For `CCCCCCCCc1ccc(OCC(=O)c2nc(C(=O)OC)cs2)cc1` [Compound A, Methyl 2-(2-(4-octylphenoxy)acetyl)thiazole-4-carboxylate], the IC50 is 0.3 µM.

On to `CCCCCCCCc1ccc(OCC(=O)c2nccs2)cc1` [Compound T, 2-(4-Octylphenoxy)-1-(thiazol-2-yl)ethanone], for which the IC50 is 1.2 µM.
